Experimental data taken from publication PMC3164901 (European journal of medicinal chemistry, 2011).
Counter-ions that a name gives are not always drawn. Each block holds one compound with its values, some of them ahead of it.

Columns and labels:
recombinant human PED10A = recombinant human PED10A (Homo sapiens, UniProt Q9Y233); assay: PDE10A enzyme assay, [3H]cAMP scintillation proximity assay; format: biochemical
rats [1] = settings: ref [8]; cited from earlier work
rats [2] = settings: ref [8], cited from earlier work
rat = settings: ref [23]; cited from earlier work
[3] = ref [24]; cited from earlier work
PDE3B = PDE3B (Homo sapiens, UniProt Q13370); assay: PDE3B enzyme assay, [3H]cAMP SPA; format: biochemical
PDE3B, sequence (Q13370 whole entry, species assumed): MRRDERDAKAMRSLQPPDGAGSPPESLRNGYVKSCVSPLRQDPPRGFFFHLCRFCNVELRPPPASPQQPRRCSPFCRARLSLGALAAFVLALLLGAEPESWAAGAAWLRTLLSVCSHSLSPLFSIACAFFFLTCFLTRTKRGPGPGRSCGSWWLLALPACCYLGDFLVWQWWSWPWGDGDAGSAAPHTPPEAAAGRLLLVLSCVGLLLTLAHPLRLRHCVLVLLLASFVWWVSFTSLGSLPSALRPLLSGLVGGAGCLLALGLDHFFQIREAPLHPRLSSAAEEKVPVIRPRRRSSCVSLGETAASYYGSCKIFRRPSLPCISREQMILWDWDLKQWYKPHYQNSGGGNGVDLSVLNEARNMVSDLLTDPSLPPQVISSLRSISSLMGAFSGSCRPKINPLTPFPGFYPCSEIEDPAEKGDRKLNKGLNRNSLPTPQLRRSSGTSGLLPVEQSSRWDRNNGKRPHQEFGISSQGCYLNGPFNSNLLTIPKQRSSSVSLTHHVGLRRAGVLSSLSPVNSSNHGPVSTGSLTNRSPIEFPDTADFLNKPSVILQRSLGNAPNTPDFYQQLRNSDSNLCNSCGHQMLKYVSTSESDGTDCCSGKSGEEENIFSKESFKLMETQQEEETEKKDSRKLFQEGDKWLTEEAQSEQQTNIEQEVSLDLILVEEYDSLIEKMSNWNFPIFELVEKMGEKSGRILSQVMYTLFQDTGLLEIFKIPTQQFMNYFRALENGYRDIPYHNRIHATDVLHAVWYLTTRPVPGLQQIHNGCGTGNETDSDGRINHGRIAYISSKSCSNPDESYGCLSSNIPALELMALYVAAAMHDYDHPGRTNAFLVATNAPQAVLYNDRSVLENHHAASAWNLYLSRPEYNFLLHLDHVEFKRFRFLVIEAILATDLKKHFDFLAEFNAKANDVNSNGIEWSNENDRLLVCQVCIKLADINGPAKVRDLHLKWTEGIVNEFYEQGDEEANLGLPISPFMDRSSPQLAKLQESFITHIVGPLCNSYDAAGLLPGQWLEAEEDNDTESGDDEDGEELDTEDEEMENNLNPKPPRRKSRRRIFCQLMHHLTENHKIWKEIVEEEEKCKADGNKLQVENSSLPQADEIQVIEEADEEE

PDE3A = PDE3A (Homo sapiens, UniProt Q14432); assay: PDE3A enzyme assay, [3H]cAMP SPA; format: biochemical
PDE3A, sequence (Q14432 whole entry, species assumed): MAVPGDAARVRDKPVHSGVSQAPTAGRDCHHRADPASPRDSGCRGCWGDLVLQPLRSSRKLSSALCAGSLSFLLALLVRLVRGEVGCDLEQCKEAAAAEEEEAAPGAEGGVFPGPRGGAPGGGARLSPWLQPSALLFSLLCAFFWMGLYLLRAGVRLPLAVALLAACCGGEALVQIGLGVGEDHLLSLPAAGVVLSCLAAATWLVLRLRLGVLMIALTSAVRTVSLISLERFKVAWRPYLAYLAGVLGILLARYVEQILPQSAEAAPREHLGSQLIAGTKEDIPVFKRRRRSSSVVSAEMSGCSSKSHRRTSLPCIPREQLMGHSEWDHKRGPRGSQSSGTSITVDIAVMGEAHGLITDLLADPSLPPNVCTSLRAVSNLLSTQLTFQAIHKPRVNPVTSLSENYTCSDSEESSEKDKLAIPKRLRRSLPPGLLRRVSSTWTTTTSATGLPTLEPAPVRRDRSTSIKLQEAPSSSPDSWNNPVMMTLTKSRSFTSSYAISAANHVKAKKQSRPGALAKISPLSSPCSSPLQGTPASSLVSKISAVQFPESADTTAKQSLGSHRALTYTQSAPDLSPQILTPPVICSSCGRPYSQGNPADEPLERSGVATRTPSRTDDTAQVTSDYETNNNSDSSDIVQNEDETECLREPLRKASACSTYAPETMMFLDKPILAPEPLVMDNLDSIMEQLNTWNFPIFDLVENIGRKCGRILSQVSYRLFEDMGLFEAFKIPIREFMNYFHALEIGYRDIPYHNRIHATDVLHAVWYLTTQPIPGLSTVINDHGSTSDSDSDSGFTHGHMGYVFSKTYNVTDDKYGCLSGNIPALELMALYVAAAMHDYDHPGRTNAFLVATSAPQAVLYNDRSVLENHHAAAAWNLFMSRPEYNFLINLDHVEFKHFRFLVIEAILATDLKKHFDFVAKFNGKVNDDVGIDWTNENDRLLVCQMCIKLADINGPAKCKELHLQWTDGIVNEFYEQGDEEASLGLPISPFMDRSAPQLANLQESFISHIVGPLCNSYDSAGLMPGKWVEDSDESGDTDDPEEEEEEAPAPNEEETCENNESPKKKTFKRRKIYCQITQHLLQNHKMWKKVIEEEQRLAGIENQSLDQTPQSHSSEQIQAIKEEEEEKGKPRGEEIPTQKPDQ

recombinant human PED10A, sequence (Q9Y233 whole entry): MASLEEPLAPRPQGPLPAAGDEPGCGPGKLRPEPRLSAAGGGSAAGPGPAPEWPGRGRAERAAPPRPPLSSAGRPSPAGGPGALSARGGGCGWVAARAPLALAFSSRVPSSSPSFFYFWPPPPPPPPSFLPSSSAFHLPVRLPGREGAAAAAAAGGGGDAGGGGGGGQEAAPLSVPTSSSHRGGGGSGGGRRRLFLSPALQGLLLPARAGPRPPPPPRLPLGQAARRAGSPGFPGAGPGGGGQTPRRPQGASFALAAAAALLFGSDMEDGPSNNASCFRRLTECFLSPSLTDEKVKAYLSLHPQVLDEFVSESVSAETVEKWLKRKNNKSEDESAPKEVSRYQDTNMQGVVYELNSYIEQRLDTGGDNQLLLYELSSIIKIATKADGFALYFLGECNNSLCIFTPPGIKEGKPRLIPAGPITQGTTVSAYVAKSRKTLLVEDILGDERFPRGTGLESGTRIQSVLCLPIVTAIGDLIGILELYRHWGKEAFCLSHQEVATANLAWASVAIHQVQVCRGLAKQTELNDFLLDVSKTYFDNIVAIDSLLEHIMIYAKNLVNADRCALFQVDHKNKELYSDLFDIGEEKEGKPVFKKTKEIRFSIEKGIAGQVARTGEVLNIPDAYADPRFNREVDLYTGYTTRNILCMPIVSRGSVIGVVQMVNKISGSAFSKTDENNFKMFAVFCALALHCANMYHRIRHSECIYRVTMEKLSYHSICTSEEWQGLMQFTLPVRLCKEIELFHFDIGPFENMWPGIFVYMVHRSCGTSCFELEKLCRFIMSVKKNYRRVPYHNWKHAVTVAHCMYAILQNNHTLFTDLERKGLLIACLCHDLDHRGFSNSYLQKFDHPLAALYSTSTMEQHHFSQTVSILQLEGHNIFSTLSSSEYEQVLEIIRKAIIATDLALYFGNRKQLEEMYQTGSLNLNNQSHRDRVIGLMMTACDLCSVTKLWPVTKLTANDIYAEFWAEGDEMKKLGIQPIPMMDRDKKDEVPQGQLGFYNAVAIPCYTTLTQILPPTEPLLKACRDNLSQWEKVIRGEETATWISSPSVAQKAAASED

IC50 (recombinant human PED10A): 0.262 ± 0.0011 µM
SMILES: COc1cc(Cc2nccc3cc(OC)c(OCCF)cc23)cc(OC)c1 [6l, 1-(3,5-Dimethoxybenzyl)-7-(2-fluoroethoxy)-6-methoxyisoquinoline oxalate]

increase of PDE10A affinity versus 8b (recombinant human PED10A; 4-fluoroethoxy extended to 4-(2-(2-fluoroethoxy))ethoxy): 2 fold
SMILES: COc1cc2ccnc(Cc3ccc(OCCOCCF)c(OC)c3)c2cc1OC.O=C(O)C(=O)O [8c, 1-(4-(2-(2-Fluoroethoxy)ethoxy)-3-methoxybenzyl)-6,7-dimethoxyisoquinoline oxalate]

SMILES: Cn1cc(-c2ccncc2)c(-c2ccc(OCc3ccc4ccccc4n3)cc2)n1 [MP-10]
hyperactivity induced by phenylcyclohexylpiperidine (PCP) and amphetamine (rats [1]): able to reduce hyperactivity

SMILES: COc1cc2ncnc(C3CC[C@H](Oc4cnc5ccccc5n4)C3)c2cc1OC (stereo partly shown) [PQ-10]
hyperactivity induced by phenylcyclohexylpiperidine (PCP) and amphetamine (rats [1]): able to reduce hyperactivity

SMILES: COc1ccc(Cc2nccc3cc(OC)c(OC)cc23)cc1OC [Papaverine, 1-(3,4-dimethoxybenzyl-6,7-dimethoxy)isoquinoline]
hyperactivity induced by phenylcyclohexylpiperidine (PCP) and amphetamine (rats [1]): able to reduce hyperactivity
catalepsy on its own (rats [2]; compound alone): did not cause catalepsy on its own
effect on cataleptic effect of the D2 receptor antagonist haloperidol (rats [2]; with haloperidol): potentiated the cataleptic effect
efficacy in novel object recognition (rat): shown efficacy
in vivo metabolism [3]: rapid in vivo metabolism

SMILES: FC(F)(F)Cn1cc(-c2ccncc2)c(-c2ccc(OCc3ccc4ccccc4n3)cc2)n1 [TP-10]
hyperactivity induced by phenylcyclohexylpiperidine (PCP) and amphetamine (rats [1]): able to reduce hyperactivity

IC50 (PDE3B): 3.1 ± 0.27 µM
IC50 (recombinant human PED10A): 0.0488 ± 0.00107 µM
IC50 (PDE3A): 3.98 ± 0.51 µM
SMILES: COc1ccc(Cc2ncnc3cc(OC)c(OC)cc23)cc1 [compound 11, 6,7-Dimethoxy-4-(4-methoxybenzyl)quinazoline oxalate]
